Test results from US20130295199A1, “Composition Comprising OPC and Omega-3 for Preventing and/or Inhibiting the Development of Diabetic Retinopathy” (VISIOTACT PHARMA, priority 2011, published 2013).

Key:
[1] = test system: retinal acellular capillaries; experiment: Quantitation of acellular capillaries in retina of diabetic animals; format: in vivo, rat; conditions: FIG. 5, result in words
Experimental: (§1) Sprague-Dawley rats (Harlan), weighing 75-100 g, were assigned to one of eight subgroups, based on non-diabetic, untreated diabetic and treated diabetic groups as indicated here-under. Sprague-Dawley rats were housed in a constant environment (room temperature (22.0±1.5)° C., room humidity (55±5) %) with a normal light-dark cycle (12-hour light, 12-hour dark). Diabetes was induced by intraperitoneal streptozotocin injection (75 mg/kg STZ, 10 mM citrate buffer, pH 4.5). Non-diabetic control animals received an equivalent dose of vehicle (citrate buffer at pH 4.6).
Evaluation of the retinal vasculature is done following adenosine diphosphatase (ADPase) activity in whole embedded retina. After overnight fixation in 2% PFA in 0.1 M cacodylate buffer at 4° C., an incision was made 2 mm posterior to the ora serrata, and the anterior segment of the eye was removed. […] The ADPase-incubated retina was washed in 0.1 M cacodylate buffer with 5% sucrose. […] Retinal microvascular density was quantified using Image J software.
After TUNEL-positive cells were counted, coverslips were soaked off, and the retinal vasculature then was stained with hematoxylin-periodic acid-Schiff. Acellular capillaries were counted in four to seven field areas in the mid retina. […] Although counting the ghosts, at least 1000 capillary cells (endothelial cells and pericytes) were counted in five mid-retinal field areas. […]

[2] = test system: Type-1 streptozotocin-induced diabetic Sprague-Dawley rats; experiment: Streptozotocin-induced diabetic rat model: body weight, blood glucose, glycated hemoglobin; format: in vivo; conditions: STZ-induced diabetic Sprague-Dawley rats, after 90 days of treatment, n=20/group, mean +/- SEM
Experimental: as §1
To analyse the effect of the composition of the invention, animals are fed as followed:
Diabetic and non-diabetic groups were examined biweekly to follow blood glucose and the body weight was recorded. 50 μL of whole blood was collected in potassium-EDTA tubes (Becton Dickinson) for subsequent analysis of glycated hemoglobin (GHb).

[3] = test system: advanced glycation end product (AGE), retinal carboxymethyl-lysine; experiment: Retinal carboxymethyl-lysine measurement (AGE-product quantification), ELISA; format: in vivo, rat; conditions: STZ-induced diabetic Sprague-Dawley rats, after 90 days of treatment, n=20/group, mean +/- SEM
Experimental: as §1
Retinal samples were exposed to ultrasonic disruption in RIPA buffer. After tissue debris suppression by centrifugation, protein level of samples was measured using bicinchoninic acid (BCA) protein assay kit (Pierce). Sample (concentration: 50 μg/mL) or advanced glycation end product (AGE)-BSA standard (0 to 200 μM) diluted in 0.05% Tween 20 and 0.2% BSA in 75 mM PBS were placed in duplicate into 96-wells plate (Nunc C96 Maxisorp; eBioscience) coated with solid-phase antigen (1 μg/mL AGE-BSA). Anti-CML rabbit polyclonal antibody was added for 2 hours at room temperature and then washed in 0.2 mM KH2PO4, 1.4 mM K2HPO4, 3 mM NaCl, 0.45 μM sorbic acid potassium, and 0.01% Tween-20 buffer. […] Absorbance was measured at 450 nm on a microplate reader (Biorad).

docosahexaneoic acid (DHA) [Group G2]
Capillary degeneration (degenerated acellular capillaries) [1]: significantly inhibited
Body weight [2]: 220 ± 10 g
GHb (glycated hemoglobin) [2]: 5.85 +/− 0.03%
Glucose [2]: 525 ± 10 mg/dL
AGE (advanced glycation end product) [3]: 0.026 +/− 0.004 AU/mg
